What all share (format): cell-based
For experiment [1], the target named is T1, hGLP-1R (Homo sapiens, UniProt P43220). Put plainly: Functional cAMP activity in the presence of 1% HSA. Particulars: read-out: cAMP Rel EC50, hGLP-1R.
The target in experiment [2] is T2, hGIPR (Homo sapiens, UniProt P48546).
T2 sequence (P48546 22-466): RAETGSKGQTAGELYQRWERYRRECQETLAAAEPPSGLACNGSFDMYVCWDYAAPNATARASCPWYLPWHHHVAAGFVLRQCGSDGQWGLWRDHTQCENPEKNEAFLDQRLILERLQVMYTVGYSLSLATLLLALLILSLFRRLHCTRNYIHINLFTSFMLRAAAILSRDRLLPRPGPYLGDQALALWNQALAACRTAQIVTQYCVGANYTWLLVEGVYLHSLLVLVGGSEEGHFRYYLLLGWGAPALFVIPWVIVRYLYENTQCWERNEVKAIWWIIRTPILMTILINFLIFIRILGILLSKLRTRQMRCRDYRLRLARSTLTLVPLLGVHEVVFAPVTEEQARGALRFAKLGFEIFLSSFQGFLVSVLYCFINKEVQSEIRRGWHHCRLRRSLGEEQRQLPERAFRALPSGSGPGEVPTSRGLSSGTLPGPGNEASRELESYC
In words: Functional cAMP activation in the presence of 0.1% casein (no HSA). Particulars: read-out: Relative cAMP EC50, hGIPR.

Experiment [3] deals with human GcgR (Homo sapiens, UniProt P47871). Put plainly: Functional cAMP activity in the presence of 1% HSA. The conditions noted are these: read-out: cAMP Rel EC50, hGcgR.
Experiment [4] deals with T2, hGIPR. In words: Functional cAMP activity in the presence of 1% HSA. The conditions noted are these: read-out: cAMP Rel EC50, hGIPR.
The target in experiment [5] is T1, hGLP-1R. In words: Functional cAMP activation in the presence of 0.1% casein (no HSA). The conditions noted are these: read-out: Relative cAMP EC50, hGLP-1R.
Experiment [6] concerns the target hGcgR (Homo sapiens, UniProt P47871). Described as above. The conditions noted are these: read-out: Relative cAMP EC50, hGcgR.

Starred links: 1 amine or outer side, 2 acyl side, 3 side chain; linkers in the order of their positions; H or OH if unused. Non-standard residues stand in square brackets, D forms with d. Residues, ends and D or L forms follow the SMILES beside them. Groups on a side chain read outwards from the residue. *: point of attachment. C18 diacid = O=C(O)CCCCCCCCCCCCCCCCC(=O)*; αMePhe(2-F) = C[C@](N)(Cc1ccccc1F)C(=O)O; γGlu = O=C(O)[C@H](CCC(=O)[*:2])N[*:1]; αMeY = C[C@](N)(Cc1ccc(O)cc1)C(=O)O; 4Pal = N[C@@H](Cc1ccncc1)C(=O)O; αMeL = CC(C)C[C@](C)(N)C(=O)O; αMeS = C[C@](N)(CO)C(=O)O; Orn = NCCC[C@H](N)C(=O)O; AEEA = NCCOCCOCC(=O)O; Aib = CC(C)(N)C(=O)O

This passage reports EC50 results from US20240270821A1, “GIP/GLP1/GCG TRI-RECEPTOR AGONISTS AND USES THEREOF” (priority 2023, published 2024).
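Throughout, for Relative cAMP EC50, hGIPR: intracellular cAMP rise after 30 min at 37 °C read by HTRF against a standard curve, scaled between buffer alone (0%) and top control ligand concentration (100%), four-parameter fit.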
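Throughout, for Relative cAMP EC50, hGLP-1R: intracellular cAMP rise after 30 min at 37 °C read by HTRF, normalized between buffer only (0%) and maximal control ligand (100%), four-parameter variable-slope fit.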
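Throughout, for Relative cAMP EC50, hGcgR: intracellular cAMP rise after 30 min at 37 °C, read by HTRF against a cAMP standard curve, scaled from buffer only (0%) to maximal control ligand response (100%).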

T1 sequence (P43220 24-463): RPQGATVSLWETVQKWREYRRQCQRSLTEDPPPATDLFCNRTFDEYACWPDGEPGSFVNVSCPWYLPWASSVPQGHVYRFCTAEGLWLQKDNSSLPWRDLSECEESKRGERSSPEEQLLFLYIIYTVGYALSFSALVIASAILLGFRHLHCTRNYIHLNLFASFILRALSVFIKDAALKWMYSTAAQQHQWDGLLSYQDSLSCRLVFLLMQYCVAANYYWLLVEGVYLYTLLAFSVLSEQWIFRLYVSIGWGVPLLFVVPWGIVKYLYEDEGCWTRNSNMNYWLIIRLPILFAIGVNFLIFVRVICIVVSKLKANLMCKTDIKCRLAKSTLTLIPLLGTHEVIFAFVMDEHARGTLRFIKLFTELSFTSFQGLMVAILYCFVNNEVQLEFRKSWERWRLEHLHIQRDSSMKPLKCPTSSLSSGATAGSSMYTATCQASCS
human GcgR, sequence (P47871 26-477): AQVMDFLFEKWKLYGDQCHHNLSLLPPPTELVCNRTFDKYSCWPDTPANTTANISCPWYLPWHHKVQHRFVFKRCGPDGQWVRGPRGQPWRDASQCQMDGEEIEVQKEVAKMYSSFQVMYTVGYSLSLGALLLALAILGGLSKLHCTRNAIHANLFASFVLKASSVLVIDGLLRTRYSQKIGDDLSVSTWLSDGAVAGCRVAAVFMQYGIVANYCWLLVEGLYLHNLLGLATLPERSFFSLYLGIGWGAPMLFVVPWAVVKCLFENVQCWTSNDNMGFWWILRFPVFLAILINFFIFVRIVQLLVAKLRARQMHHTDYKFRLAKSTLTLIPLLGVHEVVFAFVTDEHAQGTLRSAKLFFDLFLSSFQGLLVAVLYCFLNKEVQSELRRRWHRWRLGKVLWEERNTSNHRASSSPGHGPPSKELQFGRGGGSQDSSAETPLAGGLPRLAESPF
hGcgR, sequence (P47871 26-477): as above

For `CC[C@H](C)[C@H](NC(=O)[C@H](Cc1ccccc1)NC(=O)[C@H](CC(N)=O)NC(=O)C(C)(C)NC(=O)[C@H](CCC(N)=O)NC(=O)[C@H](C)NC(=O)[C@H](CCCCNC(=O)CC[C@H](NC(=O)CC[C@H](NC(=O)CCCCCCCCCCCCCCCCC(=O)O)C(=O)O)C(=O)O)NC(=O)[C@H](CCCN)NC(=O)[C@H](CC(=O)O)NC(=O)[C@H](CC(C)C)NC(=O)[C@](C)(CC(C)C)NC(=O)[C@@H](NC(=O)[C@](C)(CO)NC(=O)[C@H](Cc1ccncc1)NC(=O)[C@H](CC(=O)O)NC(=O)[C@H](CO)NC(=O)[C@@H](NC(=O)[C@](C)(Cc1ccccc1F)NC(=O)[C@@H](NC(=O)CNC(=O)[C@H](CCC(N)=O)NC(=O)C(C)(C)NC(=O)[C@@H](N)Cc1ccc(O)cc1)[C@@H](C)O)[C@@H](C)O)[C@@H](C)CC)C(=O)N[C@H](CCC(=O)O)C(=O)N[C@@](C)(Cc1ccc(O)cc1)C(=O)N[C@@H](CC(C)C)C(=O)N[C@@H](CCC(N)=O)C(=O)N[C@@H](CCC(=O)O)C(=O)NCC(=O)NCC(=O)N1CCC[C@H]1C(=O)N[C@@H](CO)C(=O)N[C@@H](CO)C(=O)NCC(=O)N[C@@H](CCC(=O)O)C(=O)N1CCC[C@H]1C(=O)N1CCC[C@H]1C(=O)N1CCC[C@H]1C(=O)N[C@@H](CCC(=O)O)C(N)=O` [Example 450] (H-Y[Aib]QGT[αMePhe(2-F)]TSD[4Pal][αMeS]I[αMeL]LD[Orn]K([γGlu-γGlu-C18 diacid])AQ[Aib]NFI[dE][αMeY]LQEGGPSSGEPPPE-NH2), the EC50 is 18.4 nM in experiment [1]; 0.0448 nM in experiment [2]; 553 nM in experiment [3]; 3.75 nM in experiment [4]; 0.43 nM in experiment [5]; 4.84 nM in experiment [6].

For `CC[C@H](C)[C@H](NC(=O)[C@H](CC(C)C)NC(=O)[C@](C)(Cc1ccc(O)cc1)NC(=O)[C@@H](CCC(=O)O)NC(=O)[C@@H](NC(=O)[C@H](Cc1ccccc1)NC(=O)[C@H](CC(N)=O)NC(=O)C(C)(C)NC(=O)[C@H](CCC(N)=O)NC(=O)[C@H](C)NC(=O)[C@H](CCCCNC(=O)COCCOCCNC(=O)CC[C@H](NC(=O)CC[C@H](NC(=O)CCCCCCCCCCCCCCCCC(=O)O)C(=O)O)C(=O)O)NC(=O)[C@H](CCCN)NC(=O)[C@H](CC(=O)O)NC(=O)[C@H](CC(C)C)NC(=O)[C@](C)(CC(C)C)NC(=O)[C@@H](NC(=O)[C@](C)(CO)NC(=O)[C@H](Cc1ccncc1)NC(=O)[C@H](CC(=O)O)NC(=O)[C@H](CO)NC(=O)[C@@H](NC(=O)[C@](C)(Cc1ccccc1F)NC(=O)[C@@H](NC(=O)CNC(=O)[C@H](CCC(N)=O)NC(=O)C(C)(C)NC(=O)[C@@H](N)Cc1ccc(O)cc1)[C@@H](C)O)[C@@H](C)O)[C@@H](C)CC)[C@@H](C)CC)C(=O)N[C@@H](CCC(=O)O)C(=O)NCC(=O)NCC(=O)N1CCC[C@H]1C(=O)N[C@@H](CO)C(=O)N[C@@H](CO)C(=O)NCC(=O)N[C@@H](CCC(=O)O)C(=O)N1CCC[C@H]1C(=O)N1CCC[C@H]1C(=O)N1CCC[C@H]1C(=O)N[C@@H](CCC(=O)O)C(N)=O` [Example 451] (H-Y[Aib]QGT[αMePhe(2-F)]TSD[4Pal][αMeS]I[αMeL]LD[Orn]K([AEEA-γGlu-γGlu-C18 diacid])AQ[Aib]NFI[dE][αMeY]LIEGGPSSGEPPPE-NH2; N-terminus assumed), the concentration giving a half-maximal response (EC50) was found to be 10.9 nM in experiment [1]; 0.0101 nM in experiment [2]; 384 nM in experiment [3]; 0.96 nM in experiment [4]; 0.256 nM in experiment [5]; 4.12 nM in experiment [6].
